Measurements: publication PMC3491036 (PLoS ONE, 2012)
Like-named read-outs stand apart in the source and are kept apart here. Blank lines part the entries; values can stand above or below the compound they belong to.

Columns and labels:
XA binding sites = assay: Displacement of [3H]XA specific binding by competitors; parameters: species or system rat; conditions: for displacement of radioactive XA specific binding: compound at 200 µM, displacement by 200 µM XA set at 100%
Experimental: Membranes (from brain or cell cultures) were incubated for 30 min at 0°C in 50 mM Pipes buffer, pH 7.4 in the presence of [^3H]-XA (2 µCi per µmole total XA at various concentrations). Non-specific binding was determined with 1 mM non-radioactive XA in the medium. Bound from free ligand was separated by rapid filtration on 25 mm Whatman GF/B filters and washing with incubation buffer (3×3 ml at 0°C). Radioactivity on filters was measured by liquid scintillation counting.
Two approaches were used for screening the pharmacological properties of XA specific binding. First, we tested at rather high concentration (200 µM) a battery of putative ligands for these sites. […] The fact that glutamate displaced not more than 10% of radioactive XA eliminates possible binding of XA on glutamate receptors under our conditions.

[1] = tested on: differentiated NCB-20 cells; assay: Cell-attached patch-clamp recording; format: cell-based, mouse neuroblastoma / Chinese hamster brain cell hybrid
Experimental: (§1) NCB-20 cells were plated at low density (10^4 cells/dish) in 35-mm dishes and differentiated with 1 mM db-cAMP. The culture medium was replaced twice a week and the cells were used after 5 days in culture. Cells were recorded either in cell-attached or whole-cell configuration of the patch-clamp technique using an Axopatch-B200 amplifier (Axon Instruments, CA, USA) in its voltage-clamp mode. […] Junction potentials were calculated using the routine procedure in the Clampex software (Axon instruments, CA, USA) and taken into account for current-voltage (I–V) relationships and reversal potential calculation according to the recording configuration.
For cell-attached recording the pipette was filled with a medium containing (in mM): N-Methyl-D-Glucamine (NMDG) chloride 140, KCl 1, MgCl2 10, EGTA 5, TEA-Cl 15, HEPES 10, pH = 7.4. To maintain the cell membrane potential close to zero, the recorded cells were continuously superfused with a bath solution containing (in mM): KCl 140, NaCl 1, MgCl2 1, CaCl2 0.5, EGTA-K 1, HEPES 10, D-glucose 10, pH = 7.4. […] Drugs were dissolved in DMSO and diluted in control solutions such that DMSO in the applied solution was diluted by a factor of at least 10^4. Drugs were applied to the recorded cells through a multi-barrel perfusion system, the rapid solution exchanger RCS-160 (Bio-Logic, Grenoble, France). […] The first tube was filled with control solution and was used to maintain a continuous superfusion of the recorded cell between applications. The selected tube was placed in front of the cell by axial rotation of calibrated angles and the application started when the selected tube takes place in front of the cell.
(§2) Data were analyzed offline using the clampfit routine of the Pclamp software package. The given results are means±SEM and statistical significance of the difference between means was determined using one way ANOVA followed by Dunnett's Multiple Comparison test.

NCB-20 cells = assay: Fluo-4 monitoring of [Ca2+]i changes; format: cell-based, mouse neuroblastoma / Chinese hamster brain cell hybrid
Experimental: The method of cellular calcium measurement used was as described previously. Briefly, NCB-20 cells were plated in glass-bottomed culture dishes and incubated at 37°C for four days. […] Then the cells were washed with Krebs for 30 min at room temperature in the dark. All settings of the laser (Argon-Krypton laser, turned to 488 nm), optical filter (BF 530/30) and microscope (Leica TCS-SP confocal inverted microscope) as well as data acquisition were controlled by the LCS (Leica Confocal System) software.
Images were recorded at a frequency of 0.1 Hz. Analysis was performed by defining regions of interest (ROI) in the first image. Values are expressed as the percentage of fluorescence change with respect to control and calculated as F/F 0 (%) (where F is the fluorescence intensity at a given time and F 0 the basal fluorescence intensity at the beginning of the experiment).
The cells were continuously superfused with normal Krebs medium and transiently submitted to the tested drug using a peristaltic pump with a flow rate of 1 ml/min. For each analyzed cell, the mean and the standard deviation (SD) of the F/F 0 of fluorescence were measured during 1–2 min before (base line) and after (signal) drug application and compared. Statistical significance of the difference between means was determined using one way ANOVA followed by Dunnett's Multiple Comparison Test for repeated measurements on absolute levels of fluo-4 fluorescence.

[2] = tested on: XA binding sites on crude synaptosomal membranes from rat brain; assay: [3H]-XA saturation and kinetic binding on crude synaptosomal membranes from rat brain
Experimental: Brains were rapidly extracted from adult male Wistar rats killed by decapitation after being stunned. All the following procedures were done with buffers cooled at 0°C. Brains were homogenized with a motor driven Teflon/glass apparatus in 10 vol (W/V) of sucrose 0.32 M containing potassium phosphate buffer pH 7.2 and 2 mM EDTA. After centrifugation at 1,500 g for 10 min to remove the crude nuclear fraction, the supernatant was spun at 35,000 g for 20 min. The pellet obtained was resuspended in lysis buffer (2 mM EDTA/water pH 6.0 at 0°C, spun at 100,000 g for 20 min). After washing the pellet with potassium phosphate buffer 50 mM, pH 6.0, the crude membrane fraction was directly used for further experiments or stored at −80°C.
(§3) Bound from free ligand was separated by rapid filtration on 25 mm Whatman GF/B filters and washing with incubation buffer (3×3 ml at 0°C). Radioactivity on filters was measured by liquid scintillation counting.

[3] = tested on: XA binding sites on IMR-32 neuroblastoma cells; assay: [3H]-XA saturation binding on IMR-32 neuroblastoma cell membranes; parameters: species or system human; conditions: IMR-32 membranes, read-out: dissociation constant (Kd)
Experimental: Cultures were maintained for one week at 37°C in the presence of CO2 (5%).
(§4) Neurons were scraped into potassium phosphate buffer 50 mM, EDTA 2 mM, pH 6.0 at 0°C. After centrifugation at 2,000 g for 3 min to eliminate nuclei and large fragments, the supernatant was spun down at 15,000 g for 10 min; the pellet was washed with the same buffer and directly used for binding experiments.
as §3

[4] = tested on: XA binding sites on NCB-20 neuroblastoma cells; assay: [3H]-XA saturation binding on NCB-20 neuroblastoma cell membranes; parameters: species or system mouse neuroblastoma / Chinese hamster brain cell hybrid; conditions: NCB-20 membranes, read-out: dissociation constant (Kd)
Experimental: as §4, §3

[5] = tested on: 75 transmembrane and soluble receptors, ion channels and monoamine transporters; assay: Cerep high-throughput profile screening; format: binding; conditions: XA at 10 µM
Experimental: Secondly, to extend the pharmacological profile of XA, this compound was tested on high-throughput profile screening which involved a collection of 75 transmembrane and soluble receptors, ion channels and monoamine transporters (Cerep, France Laboratories, Poitiers). XA was tested on these collections of proteins at 10 µM concentration.

[6] = tested on: rat brain synaptosomal membranes; conditions: read-out: EC50 of GTP-γ-S binding; XA 0.5 to 50 µM, 5 µM GDP, 20 mM MgCl2
Experimental: The Scintillation Proximity Assay (SPA) of Amersham was used. […] Brain synaptosomal membranes were thus incubated in assay buffer (pH 7.4) containing 20 mM HEPES, 100 mM NaCl, 20 mM MgCl2 with 0.3 nM [^35S]GTP-γ-S and 5 µM GDP for 30 min at room temperature. Non-specific binding was determined in the presence of 200 µM GTP. WGA SPA beads were added and the mixture was incubated at room temperature for a further 30 min. The plates were centrifuged at 1,200 g for 5 min and SPA cpm were determined by scintillation counting.

[7] = tested on: differentiated NCB-20 cells; assay: cells
Experimental: as §1, §2

various cell cultures = conditions: concentration of 10 µM; cited from earlier work
[8] = peripheral administration; cited from earlier work
[9] = frequency histogram of the illustrated XA response
[10] = illustrated response to 10 µM XA, NMDG-Cl pipette, ramp protocol

IC50 (XA binding sites): 350 nM
SMILES: O=C(O)c1cc(O)c2c(Cl)cc(Cl)c(O)c2n1 [NCS-482]
functional properties in patch-clamp experiments [1]: agonistic

IC50 (XA binding sites): 14600 nM
SMILES: Nc1cccc2c(O)cc(C(=O)O)nc12 [NCS-486]
functional properties in patch-clamp experiments [1]: antagonistic | reduction of the agonist-induced current-response ([1]; NCS-486 20 µM co-applied with 5 µM XT-21): 86.1±5.0% | reduction of the agonist-induced current-response ([1]; NCS-486 20 µM co-applied with 10 µM XA): 88.3±3.8% | reduction of the agonist-induced current-response ([1]; NCS-486 20 µM co-applied with 18 µM NCS-482): 88.7±3.2% | effect when applied alone ([1]; NCS-486 20 µM, 6 cells tested): did not have any effect by itself | fluo-4 fluorescence (F/F0) (NCB-20 cells; 100 µM NCS-486 applied alone, 5 min): 83.9±2.7% | fluo-4 fluorescence (F/F0) (NCB-20 cells; 100 µM NCS-486 with 25 µM XA, 5 min): 86.9±0.7%

The next lines start with the compound.

SMILES: NCCCC(=O)O [GABA]
displacement of radioactive XA specific binding (XA binding sites): very low potency

SMILES: O=C(O)c1cc(O)c2cccc(O)c2n1 [XA, Xanthurenic acid]
Kob ([2]; [3H]-XA 0.2 µM, pH 7.4, 0°C): 1.44 min⁻¹ | Kd ([2]; from Kob and Koff, read-out: calculated Kd (from rate constants)): 1400 nM | Kd ([2]; saturation experiments, crude brain synaptosomal membranes, pH 7.4, 0°C, read-out: dissociation constant (Kd)): 740 nM | Kd [3]: 750 nM | Kd [4]: 1300 nM | IC50 (XA binding sites): 300 nM | competition on the binding of specific ligands of the 75 proteins [5]: No significant competitive properties | effect on adenosine, benzodiazepine, dopamine, GABA, canabinoid, histamine, muscarinic, opioid, purinergic and serotonin receptors [5]: no effect | EC50 [6]: 2000 ± 1900 nM | Hill coefficient ([7]; Hill fit of dose-response): 3.5 | maximal conductance ([7]; Hill fit of dose-response): 12.5 nS | cells tested showing an XA induced response ([7]; XA 1 to 30 µM, whole-cell): about 71% | reversal potential of XA-induced current ([7]; high chloride pipette medium): −3.3±4.0 mV | reversal potential of XA-induced current ([7]; low chloride pipette medium): −3.8±2.5 mV | EC50 ([7]; read-out: EC50 of XA activated conductance): 11700 ± 2200 nM | Er1, global mean value ([1]; all XA responses, mean ± SEM): −32.2±4.0 mV | Er2, global mean value ([1]; all XA responses, mean ± SEM): −13.9±1.1 mV | Er3, global mean value ([1]; all XA responses, mean ± SEM): −1.0±0.6 mV | Er4, global mean value ([1]; all XA responses, mean ± SEM): 11.5±0.8 mV | Er5, global mean value ([1]; all XA responses, mean ± SEM): 31.1±2.0 mV | Er1, mean of Gaussian fit [1, 9]: −23.2 mV | Er2, mean of Gaussian fit [1, 9]: −9.6 mV | Er3, mean of Gaussian fit [1, 9]: 0.8 mV | Er4, mean of Gaussian fit [1, 9]: 12.6 mV | Er5, mean of Gaussian fit [1, 9]: 20.3 mV | reversal potential (Er), position 1 (initial value) [1, 10]: −9 mV | reversal potential (Er), position 2 [1, 10]: about 14 mV | reversal potential (Er), position 3 [1, 10]: ~25 mV | reversal potential (Er), position 4 [1, 10]: ~−1 mV | reversal potential (Er), position 5 [1, 10]: ~−26 mV | persistence of signal before returning to basal levels (NCB-20 cells; 10 µM XA): about 5 min | start of signal after XA application (NCB-20 cells; 10 µM XA): about 1 min | intensity of fluo-4 signal above basal levels (NCB-20 cells; 10 µM XA, 6 min application): 60–80% | fluo-4 fluorescence (F/F0) (NCB-20 cells; 25 µM XA after 5 min washout of NCS-486): 134.9±6.5% | mean apparent maximum of the response (F/F0) (NCB-20 cells; XA 1 to 10 µM): about 157±3% | EC50 (NCB-20 cells; read-out: EC50 of first (activation) phase of Ca2+ response): 1400 nM | toxicity in cell cultures (various cell cultures): apoptotic-like cell death | brain penetration [8]: penetrates the brain freely

SMILES: O=C(O)c1cc(O)c2cc(-c3ccccc3)cc(O)c2n1 [XT-21]
IC50 (XA binding sites): 4600 nM | functional properties in patch-clamp experiments [1]: agonistic | response amplitude relative to 10 µM XA ([1]; XT-21 5 µM, cell-attached): about 2.5 fold | response amplitude relative to 18 µM NCS-482 ([1]; XT-21 5 µM, cell-attached): ~1.5 fold

SMILES: O=C(O)c1cc(=O)c2ccccc2[nH]1 [kynurenic acid]
displacement of radioactive XA specific binding (XA binding sites): 30%

SMILES: O=C(O)c1ccccn1 [picolinic acid]
IC50 (XA binding sites): 41000 ± 5000 nM | displacement of radioactive XA specific binding (XA binding sites): 60%

SMILES: O=C(O)c1cccnc1C(=O)O [quinolinic acid]
displacement of radioactive XA specific binding (XA binding sites): 40%
